Target: T1, recombinant full-length human prolyl endopeptidase (PREP) (Homo sapiens, UniProt P48147)
T1 construct: To recombinant full-length human prolyl endopeptidase (PREP, R&D-Systems, 4308-SE); purchased R&D-Systems 4308-SE
T1 sequence (P48147 1-710): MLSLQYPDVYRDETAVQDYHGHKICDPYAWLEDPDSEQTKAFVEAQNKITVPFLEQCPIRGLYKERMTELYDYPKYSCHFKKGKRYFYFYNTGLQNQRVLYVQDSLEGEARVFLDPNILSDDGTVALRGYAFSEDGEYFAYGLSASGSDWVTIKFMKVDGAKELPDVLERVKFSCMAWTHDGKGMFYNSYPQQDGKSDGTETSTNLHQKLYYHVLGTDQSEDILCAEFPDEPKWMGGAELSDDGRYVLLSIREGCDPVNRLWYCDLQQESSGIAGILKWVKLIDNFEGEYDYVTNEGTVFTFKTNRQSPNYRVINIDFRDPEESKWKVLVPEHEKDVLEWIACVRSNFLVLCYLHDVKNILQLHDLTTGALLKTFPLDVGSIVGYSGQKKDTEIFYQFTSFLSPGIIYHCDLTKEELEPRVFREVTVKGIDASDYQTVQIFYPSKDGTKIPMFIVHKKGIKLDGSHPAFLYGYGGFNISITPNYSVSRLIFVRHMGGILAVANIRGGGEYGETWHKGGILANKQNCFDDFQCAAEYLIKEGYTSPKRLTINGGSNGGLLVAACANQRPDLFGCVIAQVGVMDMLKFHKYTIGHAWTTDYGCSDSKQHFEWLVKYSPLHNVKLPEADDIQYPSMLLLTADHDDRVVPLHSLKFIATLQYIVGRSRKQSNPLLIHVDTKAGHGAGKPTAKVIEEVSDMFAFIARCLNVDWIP
Assay: Biochemical human prolyl endopeptidase (PREP) assay with fluorescently labelled substrate
Conditions: substrate Z-Gly-Pro-AMC 50 μM, 32° C., 60 min; some as mean values from multiple independent determinations
Summary of the method: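 0.4 nM (final, example) recombinant PREP in pH 7.5 Tris buffer with EDTA, GSH, BSA and Brij-35; compounds at 1 nM to 30 μM. Reaction started with 50 μM Z-Gly-Pro-AMC and followed by fluorescence (ex 360/em 465 nm) at 32° C for 60 min. IC50 interpolated from percent activity based on initial slopes.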

SMILES | IC50 [nM]
O=C([C@@H]1CCCc2nn(Cc3nccc(C(F)(F)F)c3Cl)c(=O)n21)N1CCCC1 [Example 533, (5S)-2-{[3-Chloro-4-(trifluoromethyl)pyridin-2-yl]methyl}-5-(pyrrolidin-1-ylcarbonyl)-5,6,7,8-tetrahydro[1,2,4]triazolo[4,3-a]pyridin-3(2H)-one] | 0.44
O=C(C1CC(C(F)(F)F)Cc2nn(Cc3ncc(C(F)(F)F)cc3Cl)c(=O)n21)N1CC[C@H](F)C1 (mixture of isomers) [Example 562, (5RS,7RS)-2-{[3-Chloro-5-(trifluoromethyl)pyridin-2-yl]methyl}-5-{[(3S)-3-fluoropyrrolidin-1-yl]carbonyl}-7-(trifluoromethyl)-5,6,7,8-tetrahydro[1,2,4]triazolo[4,3-a]pyridin-3(2H)-one] | 1.33
O=C([C@@H]1CCCc2nn(Cc3ccc(Cl)nc3)c(=O)n21)N1CC(F)C1 [Example 421, (5S)-2-[(6-Chloropyridin-3-yl)methyl]-5-[(3-fluoroazetidin-1-yl)carbonyl]-5,6,7,8-tetrahydro[1,2,4]triazolo[4,3-a]pyridin-3(2H)-one] | 0.91
O=C(C1CCCc2nn(Cc3cc(Cl)cc(Cl)c3)c(=O)n21)N1CCC(F)(F)C1 (racemic) [Example 82, (5RS)-2-(3,5-Dichlorobenzyl)-5-[(3,3-difluoropyrrolidin-1-yl)carbonyl]-5,6,7,8-tetrahydro[1,2,4]triazolo[4,3-a]pyridin-3(2H)-one] | 1.75
CC1Cc2nn(Cc3ccc(C(F)(F)F)nc3)c(=O)n2C(C(=O)N2CC(O)C2)C1 (single isomer, unassigned) [Example 135, (5RS,7RS)-5-[(3-Hydroxyazetidin-1-yl)carbonyl]-7-methyl-2-{[6-(trifluoromethyl)pyridin-3-yl]methyl}-5,6,7,8-tetrahydro[1,2,4]triazolo[4,3-a]pyridin-3(2H)-one] | 34.5
O=C([C@@H]1C[C@@H](C(F)(F)F)Cc2nn(Cc3ccc(C(F)(F)F)nc3)c(=O)n21)N1CC[C@H](F)C1 (single isomer, unassigned) [Example 237] | 0.94
O=C([C@@H]1CCCc2nn(Cc3cncc(Cl)c3)c(=O)n21)N1C[C@@H](F)[C@@H](F)C1 [Example 439, (5S)-2-[(5-Chloropyridin-3-yl)methyl]-5-{[(3R,4S)-3,4-difluoropyrrolidin-1-yl]carbonyl}-5,6,7,8-tetrahydro[1,2,4]triazolo[4,3-a]pyridin-3(2H)-one] | 2.2
Cc1nc(C)c(Cn2nc3n(c2=O)C(C(=O)N2CCCC2)CCC3)nc1C (single isomer, unassigned) [Example 104, (5RS)-5-(Pyrrolidin-1-ylcarbonyl)-2-[(3,5,6-trimethylpyrazin-2-yl)methyl]-5,6,7,8-tetrahydro[1,2,4]triazolo[4,3-a]pyridin-3(2H)-one] | 0.46
CC1CCC(C(=O)N2C[C@@H](F)[C@@H](F)C2)n2c1nn(Cc1ccc(F)cc1F)c2=O (mixture of isomers) [Example 324, (5RS,8RS)-2-(2,4-Difluorobenzyl)-5-{[(3R,4S)-3,4-difluoropyrrolidin-1-yl]carbonyl}-8-methyl-5,6,7,8-tetrahydro[1,2,4]triazolo[4,3-a]pyridin-3(2H)-one] | 1.2
CN(C)C(=O)c1ccc(Cn2nc3n(c2=O)C(C(=O)N2CCCC2)CCC3)cc1 (racemic) [Example 156, N,N-Dimethyl-4-{[(5RS)-3-oxo-5-(pyrrolidin-1-ylcarbonyl)-5,6,7,8-tetrahydro[1,2,4]triazolo[4,3-a]pyridin-2(3H)-yl]methyl}benzamide] | 69
O=C(C1C(C(F)(F)F)CCc2nn(Cc3ccc(C(F)(F)F)nc3)c(=O)n21)N1CC[C@H](F)C1 (single isomer, unassigned) [Example 286] | 98.5
O=C([C@@H]1CCCc2nn(Cc3ccc(F)nc3)c(=O)n21)N1CC(F)(F)C1 [Example 537, (5S)-5-[(3,3-Difluoroazetidin-1-yl)carbonyl]-2-[(6-fluoropyridin-3-yl)methyl]-5,6,7,8-tetrahydro[1,2,4]triazolo[4,3-a]pyridin-3(2H)-one] | 8.8
CC(c1ccc(C(F)(F)F)nc1)n1nc2n(c1=O)[C@H](C(=O)N1C[C@@H](F)[C@@H](F)C1)CCC2 (single isomer, unassigned) [Example 219] | 7.3
O=C(C1CCC(C(F)(F)F)c2nn(Cc3ccc(C(F)(F)F)nc3)c(=O)n21)N1CC[C@H](F)C1 (single isomer, unassigned) [Example 272] | 0.695
O=C([C@@H]1CCCc2nn(Cc3cccc(C(F)(F)F)c3)c(=O)n21)N1CC[C@H](O)C1 [Example 99, (5S)-5-{[(3S)-3-Hydroxypyrrolidin-1-yl]carbonyl}-2-[3-(trifluoromethyl)benzyl]-5,6,7,8-tetrahydro[1,2,4]triazolo[4,3-a]pyridin-3(2H)-one] | 12.7
O=C(C1C(C(F)(F)F)CCc2nn(Cc3ncc(Cl)cc3F)c(=O)n21)N1CC(F)C1 (racemic) [Example 308, (5RS,6RS)-2-[(5-Chloro-3-fluoropyridin-2-yl)methyl]-5-[(3-fluoroazetidin-1-yl)carbonyl]-6-(trifluoromethyl)-5,6,7,8-tetrahydro[1,2,4]triazolo[4,3-a]pyridin-3(2H)-one] | 125
O=C([C@@H]1CCCc2nn(Cc3nc(C(F)(F)F)no3)c(=O)n21)N1CC(F)C1 [Example 540, (5S)-5-[(3-Fluoroazetidin-1-yl)carbonyl]-2-{[3-(trifluoromethyl)-1,2,4-oxadiazol-5-yl]methyl}-5,6,7,8-tetrahydro[1,2,4]triazolo[4,3-a]pyridin-3(2H)-one] | 27
O=C(C1CC(C(F)(F)F)Cc2nn(Cc3ccc(Cl)nc3)c(=O)n21)N1CC(F)C1 (single isomer, unassigned) [Example 238, (5RS,7RS)-2-[(6-Chloropyridin-3-yl)methyl]-5-[(3-fluoroazetidin-1-yl)carbonyl]-7-(trifluoromethyl)-5,6,7,8-tetrahydro[1,2,4]triazolo[4,3-a]pyridin-3(2H)-one] | 73
O=C(C1CCC(C(F)(F)F)c2nn(Cc3ccc(C(F)(F)F)nc3)c(=O)n21)N1C[C@@H](F)[C@@H](F)C1 (mixture of isomers) [Example 270, (5RS,8RS)-5-{[(3R,4S)-3,4-Difluoropyrrolidin-1-yl]carbonyl}-8-(trifluoromethyl)-2-{[6-(trifluoromethyl)pyridin-3-yl]methyl}-5,6,7,8-tetrahydro[1,2,4]triazolo[4,3-a]pyridin-3(2H)-one] | 2
Cc1ccc(Cn2nc3n(c2=O)[C@H](C(=O)N2CCC(C)(F)C2)CCC3)cc1 (mixture of isomers) [Example 151, (5S)-5-{[(3RS)-3-Fluoro-3-methylpyrrolidin-1-yl]carbonyl}-2-(4-methylbenzyl)-5,6,7,8-tetrahydro[1,2,4]triazolo[4,3-a]pyridin-3(2H)-one] | 0.26
O=C(C1C(C(F)(F)F)CCc2nn(Cc3ncc(Cl)cc3F)c(=O)n21)N1CC[C@H](F)C1 (single isomer, unassigned) [Example 295] | 12
O=C(C1CC(C(F)(F)F)Cc2nn(Cc3ncc(Cl)cc3F)c(=O)n21)N1CC[C@H](F)C1 (mixture of isomers) [Example 264, (5RS,7RS)-2-[(5-Chloro-3-fluoropyridin-3-yl)methyl]-5-{[(3S)-3-fluoropyrrolidin-1-yl]carbonyl}-7-(trifluoromethyl)-5,6,7,8-tetrahydro[1,2,4]triazolo[4,3-a]pyridin-3(2H)-one] | 2.55
O=C(C1C(C(F)(F)F)CCc2nn(Cc3ncc(Cl)cc3Cl)c(=O)n21)N1CC[C@H](F)C1 (mixture of isomers) [Example 282, (5RS,6RS)-2-[(3,5-Dichloropyridin-2-yl)methyl]-5-{[(3S)-3-fluoropyrrolidin-1-yl]carbonyl}-6-(trifluoromethyl)-5,6,7,8-tetrahydro[1,2,4]triazolo[4,3-a]pyridin-3(2H)-one] | 15
O=C(C1CC(C(F)(F)F)Cc2nn(Cc3cncc(Cl)c3)c(=O)n21)N1CC[C@H](F)C1 (single isomer, unassigned) [Example 318] | 518
Cc1ccc(Cn2nc3n(c2=O)C(C(=O)N2C[C@@H]4[C@H](C2)C4(F)F)CCC3)cc1 (mixture of isomers) [Example 117, (5RS)-5-{[(cis)-6,6-Difluoro-3-azabicyclo[3.1.0]hex-3-yl]carbonyl}-2-(4-methylbenzyl)-5,6,7,8-tetrahydro[1,2,4]triazolo[4,3-a]pyridin-3(2H)-one] | 3.15
O=C([C@@H]1CCCc2nn(Cc3cc4cccnc4nc3C(F)(F)F)c(=O)n21)N1CCC(F)(F)C1 [Example 418, (5S)-5-[(3,3-Difluoropyrrolidin-1-yl)carbonyl]-2-{[2-(trifluoromethyl)-1,8-naphthyridin-3-yl]methyl}-5,6,7,8-tetrahydro[1,2,4]triazolo[4,3-a]pyridin-3(2H)-one] | 2.24

From patent US10722501B2 (BAYER AKTIENGESELLSCHAFT, priority 2016, dated 2020)
